Patent US7410996B2, “3-aryloxy/thio-2,3-substituted propanamines and their use in inhibiting serotonin and norepinephrine reuptake” (Eli Lilly and Company, priority 2002, dated 2008)
Where a name gives a salt, the structure may show the parent alone.

What was measured:
[1] = target: T1, human serotonin transporter (Homo sapiens, UniProt P31645); assay: [3H]-citalopram scintillation proximity binding assay (serotonin binding assay); details: read-out: Ki (SERT)
T1 construct: isolate and amplify each of the three full-length cDNAs from an appropriate cDNA library; expressed in transfected cells; host or cells: HEK293 cells, stably transfected (pcDNA3.1-type vector); membrane preparation
T1 sequence (P31645 whole entry): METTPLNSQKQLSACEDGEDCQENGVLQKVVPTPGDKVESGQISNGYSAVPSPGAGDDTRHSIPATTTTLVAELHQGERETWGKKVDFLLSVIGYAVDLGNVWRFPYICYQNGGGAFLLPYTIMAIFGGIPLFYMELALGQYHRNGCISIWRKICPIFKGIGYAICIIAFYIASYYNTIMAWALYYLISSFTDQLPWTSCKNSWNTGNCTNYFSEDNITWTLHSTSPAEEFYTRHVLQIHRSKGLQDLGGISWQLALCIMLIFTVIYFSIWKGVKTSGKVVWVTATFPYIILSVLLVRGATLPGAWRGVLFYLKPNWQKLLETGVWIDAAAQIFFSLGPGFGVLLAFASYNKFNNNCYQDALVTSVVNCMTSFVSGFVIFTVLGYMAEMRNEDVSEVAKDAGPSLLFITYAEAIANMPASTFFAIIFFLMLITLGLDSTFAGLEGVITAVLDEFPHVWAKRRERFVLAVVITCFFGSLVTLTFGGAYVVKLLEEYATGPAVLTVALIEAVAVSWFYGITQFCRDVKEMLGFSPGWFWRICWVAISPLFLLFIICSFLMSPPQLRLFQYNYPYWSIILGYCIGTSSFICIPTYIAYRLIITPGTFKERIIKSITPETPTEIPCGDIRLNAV
From the text: (§1) Generation of Stable Cell-lines Expressing the Human Dopamine, Norepinephrine and Serotonin Transporters
(§2) Standard molecular cloning techniques were used to generate stable cell-lines expressing the human dopamine, norepinephrine and serotonin transporters. The polymerase chain reaction (PCR) was used in order to isolate and amplify each of the three full-length cDNAs from an appropriate cDNA library. Primers for PCR were designed using the following published sequence data:
Human serotonin transporter: GenBank L05568. Reference: Ramamoorthy S, Bauman A L, Moore K R, Han H, Yang-Feng T, Chang A S, Ganaphthy V and Blakely R D. Antidepressant- and cocaine-sensitive human serotonin transporter: Molecular cloning, expression, and chromosomal localization. Proceedings of the National Academy of Sciences of the USA (1993) volume 90, pages 2542-2546. […]
Membrane preparation is essentially similar to that for the norepinephrine transporter containing membranes as described above. […] The protein concentration of the membrane preparation was determined using a BCA protein assay reagent kit. […]
The microtitre plates were incubated at room temperature for 10 hours prior to reading in a Trilux scintillation counter. The results were analysed using an automatic spline fitting programme Multicalc, Packard, Milton Keynes, UK) to provide Ki (nM) values for each of the test compounds. […]

[2] = target: T2, human norepinephrine transporter (Homo sapiens, UniProt P23975); assay: [3H]-nisoxetine scintillation proximity binding assay (norepinephrine binding assay); details: read-out: Ki (NET)
T2 construct: isolate and amplify each of the three full-length cDNAs from an appropriate cDNA library; expressed in transfected cells; host or cells: HEK-293 cells, stably transfected (pcDNA3.1-type vector); membrane preparation
T2 sequence (P23975 whole entry): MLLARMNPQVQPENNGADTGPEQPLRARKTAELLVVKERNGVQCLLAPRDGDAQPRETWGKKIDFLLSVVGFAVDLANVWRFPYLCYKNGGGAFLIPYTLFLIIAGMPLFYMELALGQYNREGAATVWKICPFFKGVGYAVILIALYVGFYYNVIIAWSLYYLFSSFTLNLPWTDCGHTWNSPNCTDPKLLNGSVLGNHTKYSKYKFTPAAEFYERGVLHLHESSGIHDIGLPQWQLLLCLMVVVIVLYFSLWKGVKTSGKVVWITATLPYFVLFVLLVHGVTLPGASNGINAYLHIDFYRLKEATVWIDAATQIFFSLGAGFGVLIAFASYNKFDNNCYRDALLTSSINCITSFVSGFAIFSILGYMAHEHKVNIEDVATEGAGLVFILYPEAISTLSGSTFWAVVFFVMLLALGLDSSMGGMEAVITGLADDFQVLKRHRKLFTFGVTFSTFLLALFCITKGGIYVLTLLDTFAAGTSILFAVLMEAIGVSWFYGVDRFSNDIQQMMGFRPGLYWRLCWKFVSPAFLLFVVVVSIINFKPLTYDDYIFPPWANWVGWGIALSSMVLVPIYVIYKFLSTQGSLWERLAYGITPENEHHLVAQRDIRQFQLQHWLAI
From the text: as §1, §2
Human norepinephrine transporter: GenBank M65105. Reference: Pacholczyk T, Blakely, R D and Amara S G. Expression cloning of a cocaine- and antidepressant-sensitive human noradrenaline transporter. Nature (1991) volume 350, pages 350-354. […]
Cell pastes from large scale production of HEK-293 cells expressing cloned human norepinephrine transporters were homogenized in 4 volumes 50 mM Tris-HCl containing 300 mM NaCl and 5 mM KCl, pH 7.4. […] The protein concentration of the membrane preparation was determined using a bicinchoninic acid (BCA) protein assay reagent kit (available from Pierce). […]
The microtitre plates were incubated at room temperature for 10 hours prior to reading in a Trilux scintillation counter. The results were analysed using an automatic spline fitting programme (Multicalc, Packard, Milton Keynes, UK) to provide Ki values for each of the test compounds. […]

Ki [1]: 1.1 nM | Ki [2]: 15.2 nM
SMILES: CNC[C@@H](O)[C@@H](Oc1ccc(F)c2ccccc12)c1cccc(F)c1 [Example 32, (1S,2R)-1-(4-Fluoro-naphthalen-1-yloxy)-1-(3-fluoro-phenyl)-3-methylamino-propan-2-ol Hydrochloride]
